# From patent US20230255906A1, “Targeting Serpin B9 in Cancer” (The Brigham and Women`s Hospital, Inc., priority 2020, published 2023)
# Test system: B16 melanoma cells
# Assay: Caspase-3 activity assay (EnzChek Caspase-3 Assay Kit), caspase-3 induction in tumor cells; note: test concentration or dose not given here
# Type: cell-based, mouse
# Conditions: not given
# Description: The EnzChek® Caspase-3 Assay Kit was used to detect apoptosis by assaying for increases in caspase-3 activities. The basis for the assay was rhodamine 110 bis-(N-CBZ-L-aspartyl-L-glutamyl-L-valyl-L-aspartic acid amide) (Z-DEVD-R110). This substrate is a bisamide derivative of rhodamine 110 (R110) containing DEVD peptides covalently linked to each of R110's amino groups, thereby suppressing the dye's visible absorption and its fluorescence. Upon enzymatic cleavage, the nonfluorescent bisamide substrate is converted in a two-step process first to a fluorescent monoamide and then to an even more fluorescent R110.
# At least 1×10^6 cells of the lysate were used for each reaction. B16 cells were treated with compounds to induce apoptosis. A negative control was prepared by incubating cells in the absence of compounds. The cells were incubated with compounds for 24 hrs and washed in PBS. Each cell sample or control was resuspended in 50 μL of the 1×cell lysis buffer. Cells were lysed by incubating on ice for 30 minutes, and the lysed cells were centrifuged to pellet the cellular debris. 50 μL of the supernatant was transferred from each sample to individual microplate wells. 50 μL of the 1× cell lysis buffer was used as a no-enzyme control to determine the background fluorescence of the substrate. 50 μL of the 2×substrate working solution was added to each sample and control. The microplate was covered, and the samples were incubated at room temperature for approximately 30 minutes. The fluorescence was measured by a fluorescence microplate reader (excitation/emission ˜496/520 nm) using excitation and emission filters.
# The ability of this small molecule inhibitor to inhibit intracellular Sb9 was then evaluated. As a marker for cell penetration, the induction of caspase-3 activity in B16 melanoma cells as a surrogate marker for increased GrB activity was measured.
# The induction of caspase-3 activity in B16 melanoma cells as a surrogate marker for increased GrB activity was also measured for other small molecules (compounds of Formulas (V) and (VI) as described herein).
row,SMILES,Ratio of caspase-3 activity to Formula (III)
1,"O=C(c1ccc2oc(-c3ccc(C(F)(F)F)cc3)nc2c1)N1CC[C@H](O)C1 [(3S)-1-({2-[4-(trifluoromethyl)phenyl]-1,3-benzoxazol-5-yl}carbonyl)-3-pyrrolidinol]",0.1382
2,"CC(C)NC(=O)c1ccc2oc(-c3ccc(C(F)(F)F)cc3)nc2c1 [N-isopropyl-2-[4-(trifluoromethyl)phenyl]-1,3-benzoxazole-5-carboxamide]",0.2847
3,"Cn1cc(CCNC(=O)c2ccc3oc(-c4cccc(F)c4)nc3c2)cn1 [2-(3-fluorophenyl)-N-[2-(1-methyl-1H-pyrazol-4-yl)ethyl]-1,3-benzoxazole-5-carboxamide]",0.4475
4,"CCCc1cc(CN(C)C(=O)c2ccc3nc(-c4cccc(OC)c4)oc3c2)n[nH]1 [2-(3-methoxyphenyl)-N-methyl-N-[(5-propyl-1H-pyrazol-3-yl)methyl]-1,3-benzoxazole-6-carboxamide]",0.1531
5,"O=C(NCc1cccnc1)c1ccc2oc(-c3cccc(F)c3)nc2c1 [2-(3-fluorophenyl)-N-(3-pyridinylmethyl)-1,3-benzoxazole-5-carboxamide]",0.1077
6,"CCN(CCO)C(=O)c1ccc2oc(-c3ccc(C(F)(F)F)cc3)nc2c1 [N-ethyl-N-(2-hydroxyethyl)-2-[4-(trifluoromethyl)phenyl]-1,3-benzoxazole-5-carboxamide]",0.1437
7,"CO[C@H]1CN(C)C[C@@H]1NC(=O)c1ccc2oc(-c3cccc(F)c3)nc2c1 (relative stereo) [2-(3-fluorophenyl)-N-[(3S*,4S*)-4-methoxy-1-methylpyrrolidin-3-yl]-1,3-benzoxazole-5-carboxamide]",0.08936
8,"O=C(N[C@H]1CCCCNC1=O)c1ccc2oc(-c3cccc(F)c3)nc2c1 [2-(3-fluorophenyl)-N-[(3S)-2-oxo-3-azepanyl]-1,3-benzoxazole-5-carboxamide]",0.771
9,"O=C(NCCO)c1ccc2oc(-c3ccc(C(F)(F)F)cc3)nc2c1 [N-(2-hydroxyethyl)-2-[4-(trifluoromethyl)phenyl]-1,3-benzoxazole-5-carboxamide]",0.3843
10,"CCn1ccnc1CN(C)C(=O)c1ccc2oc(-c3ccc(C(F)(F)F)cc3)nc2c1 [N-[(1-ethyl-1H-imidazol-2-yl)methyl]-N-methyl-2-[4-(trifluoromethyl)phenyl]-1,3-benzoxazole-5-carboxamide]",0.1566
11,"Cc1c[nH]c(CN(C)C(=O)c2ccc3oc(-c4ccc(C(F)(F)F)cc4)nc3c2)n1 [N-methyl-N-[(4-methyl-1H-imidazol-2-yl)methyl]-2-[4-(trifluoromethyl)phenyl]-1,3-benzoxazole-5-carboxamide]",0.1327
12,"COc1cccc(-c2nc3ccc(C(=O)NCc4nnn[nH]4)cc3o2)c1 [2-(3-methoxyphenyl)-N-(1H-tetrazol-5-ylmethyl)-1,3-benzoxazole-6-carboxamide]",0.3911
13,"COc1cccc(-c2nc3ccc(C(=O)N(C)Cc4cc(C)on4)cc3o2)c1 [2-(3-methoxyphenyl)-N-methyl-N-[(5-methylisoxazol-3-yl)methyl]-1,3-benzoxazole-6-carboxamide]",0.2402
14,"COc1cccc(-c2nc3ccc(C(=O)NCC4CCCO4)cc3o2)c1 (stereo not drawn) [2-(3-methoxyphenyl)-N-(tetrahydro-2-furanylmethyl)-1,3-benzoxazole-6-carboxamide]",0.4304
15,"CCOC(=O)CCNC(=O)c1ccc2oc(-c3cccc(F)c3)nc2c1 [ethyl N-{[2-(3-fluorophenyl)-1,3-benzoxazol-5-yl]carbonyl}-beta-alaninate]",0.09329
16,"CC(C)NC(=O)CCNC(=O)c1ccc2nc(-c3ccccc3)oc2c1 [3-[(2-phenyl-1,3-benzoxazol-6-yl)formamido]-N-(propan-2-yl)propanamide]",1.371
17,"COc1cccc(-c2nc3ccc(C(=O)N4CCN(C5CCCC5)CC4)cc3o2)c1 [6-[(4-cyclopentyl-1-piperazinyl)carbonyl]-2-(3-methoxyphenyl)-1,3-benzoxazole]",0.1582
18,"CC(C)N(CCO)C(=O)c1ccc2oc(-c3ccc(C(F)(F)F)cc3)nc2c1 [N-(2-hydroxyethyl)-N-isopropyl-2-[4-(trifluoromethyl)phenyl]-1,3-benzoxazole-5-carboxamide]",0.1324
19,"CC(NC(=O)c1ccc2oc(-c3cccc(F)c3)nc2c1)c1ncn[nH]1 (stereo not drawn) [2-(3-fluorophenyl)-N-[1-(1H-1,2,4-triazol-5-yl)ethyl]-1,3-benzoxazole-5-carboxamide]",0.1158
20,"Cn1cc(CNC(=O)c2ccc3oc(-c4cccc(F)c4)nc3c2)cn1 [2-(3-fluorophenyl)-N-[(1-methyl-1H-pyrazol-4-yl)methyl]-1,3-benzoxazole-5-carboxamide]",0.1005

# Same assay, conditions: relative to compound of Formula (III)
row,SMILES,"Caspase-3 induction, Normalized to Formula (III) (%)"
1,COc1cc(C(=O)NCC2CCCC2)ccc1OCCC(C)C [N-(cyclopentylmethyl)-3-methoxy-4-(3-methylbutoxy)benzamide],−50.1028%
2,"O=C(NC1CCCC1)c1cc2c(cc1O)OCO2 [N-cyclopentyl-6-hydroxy-2H-1,3-benzodioxole-5-carboxamide]",−61.6444%
3,"Cc1cc(O)c(O)cc1C(=O)NC1CCCC1 [N-cyclopentyl-4,5-dihydroxy-2-methylbenzamide]",−66.5183%
4,"COCCCNC(=O)c1ccc2nc(-c3cc(Cl)cc(Cl)c3)oc2c1 [2-(3,5-dichlorophenyl)-N-(3-methoxypropyl)-1,3-benzoxazole-6-carboxamide]",−31.5901%
5,"O=C(c1ccc2nc(S)oc2c1)N1CCCC1 [6-(pyrrolidine-1-carbonyl)-1,3-benzoxazole-2-thiol]",−30.7254%
6,"O=C(NC1CCCC1)c1ccc2nc(S)oc2c1 [N-cyclopentyl-2-sulfanyl-1,3-benzoxazole-6-carboxamide]",−81.3264%
7,"COc1cc(Br)c(C(=O)NC2CCCC2)cc1OC [2-bromo-N-cyclopentyl-4,5-dimethoxybenzamide]",−49.8913%
8,CCOc1ccc(C(=O)N2CCCC2)cc1O [2-ethoxy-5-(pyrrolidine-1-carbonyl)phenol],−21.427%
9,"CN(C)c1nc2cccc(C(=O)NCc3ccccc3)c2o1 [N-benzyl-2-(dimethylamino)-1,3-benzoxazole-7-carboxamide]",−26.8974%
10,COc1cc(C(=O)NCC2CCOCC2)ccc1O [4-hydroxy-3-methoxy-N-[(oxan-4-yl)methyl]benzamide],−76.3077%
11,"COc1cc(C(=O)NCC2(C)CC2)cc(OC)c1O [4-hydroxy-3,5-dimethoxy-N-[(1-methylcyclopropyl)methyl]benzamide]",−0.598%
12,"COc1cc(Br)c(C(=O)NCC2CCOCC2)cc1OC [2-bromo-4,5-dimethoxy-N-[(oxan-4-yl)methyl]benzamide]",−43.6422%
13,"O=C(c1ccc2nc(C3CC3)oc2c1)N1CCCC1 [2-cyclopropyl-6-(pyrrolidine-1-carbonyl)-1,3-benzoxazole]",−27.4144%
14,"O=C(c1ccc2nc(C(F)(F)F)oc2c1)N1CCCC1 [6-(pyrrolidine-1-carbonyl)-2-(trifluoromethyl)-1,3-benzoxazole]",−71.4007%
15,"COc1cc(C(=O)NCC2CCOCC2)cc(OC)c1O [4-hydroxy-3,5-dimethoxy-N-[(oxan-4-yl)methyl]benzamide]",−78.7609%
16,"COc1cc(Br)c(C(=O)NCC2CCOC2)cc1OC (stereo not drawn) [2-bromo-4,5-dimethoxy-N-[(oxolan-3-yl)methyl]benzamide]",−2.142%
17,"O=C(NCc1ccccc1)c1ccc2nc(C(F)(F)C(F)(F)F)oc2c1 [N-benzyl-2-(1,1,2,2,2-pentafluoroethyl)-1,3-benzoxazole-6-carboxamide]",−48.3904%
18,"Cc1cc(O)c(O)cc1C(=O)NCc1ccccc1 [N-benzyl-4,5-dihydroxy-2-methylbenzamide]",−43.6184%
19,"CCN(C)C(=O)c1ccc2oc(C)nc2c1 [N-ethyl-N,2-dimethyl-1,3-benzoxazole-5-carboxamide]",−65.6678%
